Assay results: US7544707B2, “Bicyclic derivatives as PPAR modulators” (Eli Lilly and Company, priority 2003, dated 2009)

Compound	melting point [°C]
CC(Oc1ccc(OC(C)(C)C(=O)O)cc1)c1cccc2nn(-c3ccc(C(F)(F)F)cc3)cc12 (racemic) [Example 75, (+/−)-2-Methyl-2-(4-{1-[2-(4-trifluoromethylphenyl)-2H-indazol-4-yl]ethoxy}phenoxy)propionic Acid]	86 to 88
CC(Oc1ccc(SC(C)(C)C(=O)O)cc1)c1cccc2nn(-c3ccc(C(F)(F)F)cc3)cc12 (racemic) [Example 76, (+/−)-2-Methyl-2-(4-{1-[2-(4-trifluoromethyl-phenyl)-2H-indazol-4-yl]ethoxy}phenylsulfanyl)propionic Acid]	138 to 140
Cc1cc(OC(C)c2cccc3c2cnn3-c2ccc(C(F)(F)F)cc2)ccc1OC(C)(C)C(=O)O (racemic) [Example 82, (+/−)-2-Methyl-2-(2-methyl-4-{1-[1-(4-trifluoromethylphenyl)-1H-indazol-4-yl]ethoxy}phenoxy)propionic Acid]	82 to 85
Cc1cc(SC(C)c2cccc3c2cnn3-c2ccc(C(F)(F)F)cc2)ccc1OC(C)(C)C(=O)O (racemic) [Example 83, (+/−)-2-Methyl-2-(2-methyl-4-{1-[1-(4-trifluoromethylphenyl)-1H-indazol-4-yl]ethylsulfanyl}phenoxy)propionic Acid]	85 to 87
CC(Oc1ccc(OC(C)(C)C(=O)O)cc1)c1cccc2c1cnn2-c1ccc(C(F)(F)F)cc1 (racemic) [Example 85, (+/−)-2-Methyl-2-(4-{1-[1-(4-trifluoromethylphenyl)-1H-indazol-4-yl]ethoxy}phenoxy)propionic Acid]	99 to 102
CC(Sc1ccc(OC(C)(C)C(=O)O)cc1)c1cccc2c1cnn2-c1ccc(C(F)(F)F)cc1 (racemic) [Example 86, (+/−)-2-Methyl-2-(4-{1-[1-(4-trifluoromethylphenyl)-1H-indazol-4-yl]ethylsulfanyl}phenoxy)propionic Acid]	85 to 90
Cc1cc(OC(CCC(F)(F)F)c2cccc3c2cnn3-c2ccc(C(F)(F)F)cc2)ccc1OC(C)(C)C(=O)O (racemic) [Example 87, (+/−)-2-Methyl-2-(2-methyl-4-{4,4,4-trifluoro-1-[1-(4-trifluoromethylphenyl)-1H-indazol-4-yl]butoxy}phenoxy)propionic Acid]	218 to 222
Cc1cc(SC(CCC(F)(F)F)c2cccc3c2cnn3-c2ccc(C(F)(F)F)cc2)ccc1OC(C)(C)C(=O)O (racemic) [Example 88, (+/−)-2-Methyl-2-(2-methyl-4-{4,4,4-trifluoro-1-[1-(4-trifluoromethylphenyl)-1H-indazol-4-yl]butylsulfanyl}phenoxy)propionic Acid]	205 to 210
CC(C)(Sc1ccc(OC(CCC(F)(F)F)c2cccc3c2cnn3-c2ccc(C(F)(F)F)cc2)cc1)C(=O)O (racemic) [Example 89, (+/−)-2-Methyl-2-(4-{4,4,4-trifluoro-1-[1-(4-trifluoromethylphenyl)-1H-indazol-4-yl]butoxy}phenylsulfanyl)propionic Acid]	> 260
CC(C)(Oc1ccc(OC(CCC(F)(F)F)c2cccc3c2cnn3-c2ccc(C(F)(F)F)cc2)cc1)C(=O)O (racemic) [Example 90, (+/−)-2-Methyl-2-(4-{4,4,4-trifluoro-1-[1-(4-trifluoromethylphenyl)-1H-indazol-4-yl]butoxy}phenoxy)propionic Acid]	175 to 180
Cc1cc(OC(c2ccccc2)c2cccc3c2cnn3-c2ccc(C(F)(F)F)cc2)ccc1OC(C)(C)C(=O)O (racemic) [Example 91, (+/−)-2-Methyl-2-(2-methyl-4-{phenyl-[1-(4-trifluoromethylphenyl)-1H-indazol-4-yl]methoxy}phenoxy)propionic Acid]	140 to 145
Cc1cc(SC(c2ccccc2)c2cccc3c2cnn3-c2ccc(C(F)(F)F)cc2)ccc1OC(C)(C)C(=O)O (racemic) [Example 92, (+/−)-2-Methyl-2-(2-methyl-4-{phenyl-[1-(4-trifluoromethylphenyl)-1H-indazol-4-yl]methylsulfanyl}phenoxy)propionic Acid]	181 to 186
Cc1cc(SCc2cccc3cn(-c4ccc(C(F)(F)F)cc4)nc23)ccc1OCC(=O)O [Example 1, 2-Methyl-4-[2-(4-trifluoromethylphenyl)-2H-indazol-7-ylmethylsulfanyl]phenoxyacetic Acid]	79 to 81
Cc1cc(SCc2cccc3cn(-c4ccc(C(F)(F)F)cc4)nc23)ccc1CCC(=O)O [Example 2, 3-{2-Methyl-4-[2-(4-trifluoromethylphenyl)-2H-indazol-7-ylmethylsulfanyl]phenyl}propionic Acid]	88 to 90
CCc1cc(SCc2cccc3cn(-c4ccc(C(F)(F)F)cc4)nc23)ccc1OCC(=O)O [Example 3, 2-Ethyl-4-[2-(4-trifluoromethylphenyl)-2H-indazol-7-ylmethylsulfanyl]phenoxyacetic Acid]	159 to 161
O=C(O)Cc1cccc(SCc2cccc3cn(-c4ccc(C(F)(F)F)cc4)nc23)c1 [Example 4, 3-[2-(4-Trifluoromethylphenyl)-2H-indazol-7-ylmethylsulfanyl]phenylacetic Acid]	147 to 149
O=C(O)Cc1csc2cc(SCc3cccc4cn(-c5ccc(C(F)(F)F)cc5)nc34)ccc12 [Example 5, 6-[2-(4-Trifluoromethylphenyl)-2H-indazol-7-ylmethylsulfanyl]benzo[b]thiophen-3-ylacetic Acid]	141 to 143

Compound	melting point [°C]
Cc1cc(OCc2cccc3cn(-c4ccc(C(F)(F)F)cc4)nc23)ccc1CCC(=O)O [Example 6, 3-{2-Methyl-4-[2-(4-trifluoromethylphenyl)-2H-indazol-7-ylmethoxy]phenyl}propionic Acid]	133 to 135
CCc1cc(OCc2cccc3cn(-c4ccc(C(F)(F)F)cc4)nc23)ccc1CCC(=O)O [Example 7, 3-{2-Ethyl-4-[2-(4-trifluoromethylphenyl)-2H-indazol-7-ylmethoxy]phenol}propionic Acid]	157 to 159
Cc1cc(SC(C)(C)c2cccc3cn(-c4ccc(C(F)(F)F)cc4)nc23)ccc1OCC(=O)O [Example 14, 2-Methyl-4-{1-methyl-1-[2-(4-trifluoromethylphenyl)-2H-indazol-7-yl]ethylsulfanyl}phenoxyacetic Acid]	118 to 120
Cc1cc(SC(C)(C)c2cccc3cn(-c4ccc(C(F)(F)F)cc4)nc23)ccc1CCC(=O)O [Example 15, 3-(2-Methyl-4-{1-methyl-1-[2-(4-trifluoromethylphenyl)-2H-indazol-7-yl]ethylsulfanyl}phenyl)propionic Acid]	68 to 70
CCc1cc(SC(C)(C)c2cccc3cn(-c4ccc(C(F)(F)F)cc4)nc23)ccc1OCC(=O)O [Example 16, 2-Ethyl-4-{1-methyl-1-[2-(4-trifluoromethylphenyl)-2H-indazol-7-yl]ethylsulfanyl}phenoxyacetic Acid]	114 to 116
CC(C)(Sc1ccc2c(CC(=O)O)csc2c1)c1cccc2cn(-c3ccc(C(F)(F)F)cc3)nc12 [Example 17, 6-{1-Methyl-1-[2-(4-trifluoromethylphenyl)-2H-indazol-7-yl]ethylsulfanyl}benzo[b]thiophen-3-ylacetic Acid]	120 to 122
Cc1cc(SCc2ccc3cn(-c4ccc(C(F)(F)F)cc4)nc3c2)ccc1OCC(=O)O [Example 19, 2-Methyl-4-[2-(4-trifluoromethylphenyl)-2H-indazol-6-ylmethylsulfanyl]phenoxyacetic Acid]	142 to 144
Cc1cc(SCc2ccc3cn(-c4ccc(C(F)(F)F)cc4)nc3c2)ccc1CCC(=O)O [Example 20, 3-{2-Methyl-4-[2-(4-trifluoromethylphenyl)-2H-indazol-6-ylmethylsulfanyl]phenyl}propionic Acid]	130 to 132
CCc1cc(SCc2ccc3cn(-c4ccc(C(F)(F)F)cc4)nc3c2)ccc1OCC(=O)O [Example 21, 2-Ethyl-4-[2-(4-trifluoromethylphenyl)-2H-indazol-6-ylmethylsulfanyl]phenoxyacetic Acid]	119 to 121
CCc1cc(OCc2ccc3cn(-c4ccc(C(F)(F)F)cc4)nc3c2)ccc1CCC(=O)O [Example 22, 3-{2-Ethyl-4-[2-(4-trifluoromethylphenyl)-2H-indazol-6-ylmethoxy]phenyl}propionic Acid]	190 to 192
O=C(O)Cc1csc2cc(SCc3ccc4cn(-c5ccc(C(F)(F)F)cc5)nc4c3)ccc12 [Example 23, 6-[2-(4-Trifluoromethylphenyl)-2H-indazol-6-ylmethylsulfanyl]benzo[b]thiophen-3ylacetic Acid]	194 to 196
Cc1cc(OCc2ccc3cn(-c4ccc(C(F)(F)F)cc4)nc3c2)ccc1CCC(=O)O [Example 24, 3-{2-Methyl-4-[2-(4-trifluoromethylphenyl)-2H-indazol-6-ylmethoxy]phenyl}propionic Acid]	181 to 183
O=C(O)Cc1csc2cc(OCc3ccc4cn(-c5ccc(C(F)(F)F)cc5)nc4c3)ccc12 [Example 25, {6-[2-(4-Trifluoromethylphenyl)-2H-indazol-6-ylmethoxy]benzo[b]thiophen-3-yl}acetic Acid]	240 to 242
Cc1cc(SCc2cccc3nn(-c4ccc(C(F)(F)F)cc4)cc23)ccc1OCC(=O)O [Example 26, 2-Methyl-4-[2-(4-trifluoromethylphenyl)-2H-indazol-4-ylmethylsulfanyl]phenoxyacetic Acid]	105 to 108
CCc1cc(SCc2cccc3nn(-c4ccc(C(F)(F)F)cc4)cc23)ccc1OCC(=O)O [Example 27, 2-Ethyl-4-[2-(4-trifluoromethylphenyl)-2H-indazol-4-ylmethylsufanyl]phenoxyacetic Acid]	65 to 70
Cc1cc(SCc2cccc3nn(-c4ccc(C(F)(F)F)cc4)cc23)ccc1CCC(=O)O [Example 28, 3-{2-Methyl-4-[2-(4-trifluoromethylphenyl)-2H-indazol-4-ylmethylsulfanyl]phenyl}propionic Acid]	55 to 59
O=C(O)Cc1csc2cc(SCc3cccc4nn(-c5ccc(C(F)(F)F)cc5)cc34)ccc12 [Example 29, 6-[2-(4-Trifluoromethylphenyl)-2H-indazol-4-ylmethylsulfanyl]benzo[b]thiophen-3-ylacetic Acid]	183 to 185
